Assay results taken from PMC6900522 (Proceedings of the National Academy of Sciences of the …, 2019).
One block for each molecule: values may come before it.

Assays:
[1] = target: T1, GUN1-PS (Arabidopsis thaliana, UniProt Q9SIC9); test: differential absorption spectrophotometry; format: binding
T1 sequence (Q9SIC9 232-918): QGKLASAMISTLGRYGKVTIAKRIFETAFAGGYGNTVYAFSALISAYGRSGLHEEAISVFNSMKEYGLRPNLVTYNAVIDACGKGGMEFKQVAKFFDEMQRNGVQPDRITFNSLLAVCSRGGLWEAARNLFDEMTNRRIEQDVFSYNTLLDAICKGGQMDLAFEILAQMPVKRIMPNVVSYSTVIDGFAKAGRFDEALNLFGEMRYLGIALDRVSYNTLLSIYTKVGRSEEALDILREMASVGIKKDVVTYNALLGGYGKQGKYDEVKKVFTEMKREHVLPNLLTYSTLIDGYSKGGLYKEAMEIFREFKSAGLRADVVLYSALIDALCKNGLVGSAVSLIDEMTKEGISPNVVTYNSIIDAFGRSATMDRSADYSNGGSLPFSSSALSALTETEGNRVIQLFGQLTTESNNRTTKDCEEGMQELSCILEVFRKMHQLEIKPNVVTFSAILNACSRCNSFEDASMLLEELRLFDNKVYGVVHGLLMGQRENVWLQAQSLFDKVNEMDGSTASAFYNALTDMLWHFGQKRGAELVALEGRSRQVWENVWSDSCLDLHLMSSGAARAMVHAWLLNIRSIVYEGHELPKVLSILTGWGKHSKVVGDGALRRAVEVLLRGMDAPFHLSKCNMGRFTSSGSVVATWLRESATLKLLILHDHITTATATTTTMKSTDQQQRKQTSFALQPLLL

[2] = substrate: C=CC1=C(C)c2cc3[nH]c(cc4nc(cc5[nH]c(cc1n2)c(C)c5CCC(=O)O)C(CCC(=O)O)=C4C)c(C)c3C=C; test: purified protein; details: Zn chelation; without GUN1-PS

Kd [1]: 6.08 ± 1.11 µM
Molecule: C=CC1=C(C)C2=Cc3c(C=C)c(C)c4[n]3[Fe]([Cl])[n]3c(c(C)c(CCC(=O)O)c3=CC3=NC(=C4)C(C)=C3CCC(=O)O)=CC1=N2 [hemin]

Kd [1]: 4.42 ± 0.56 µM
Molecule: C=CC1=C(C)c2cc3[nH]c(cc4nc(cc5[nH]c(cc1n2)c(C)c5CCC(=O)O)C(CCC(=O)O)=C4C)c(C)c3C=C [Proto IX]

B1: FC1 (Arabidopsis thaliana) (protein)
chain: CDIKERSFGESMTITNRGLSFKTNVFEQARSVTGDCSYDETSAKARSHVVAEDKIGVLLLNLGGPETLNDVQPFLYNLFADPDIIRLPRPFQFLQGTIAKFISVVRAPKSKEGYAAIGGGSPLRKITDEQADAIKMSLQAKNIAANVYVGMRYWYPFTEEAVQQIKKDKITRLVVLPLYPQYSISTTGSSIRVLQDLFRKDPYLAGVPVAIIKSWYQRRGYVNSMADLIEKELQTFSDPKEVMIFFSAHGVPVSYVENAGDPYQKQMEECIDLIMEELKARGVLNDHKLAYQSRVGPVQWLKPYTDEVLVDLGKSGVKSLLAVPVSFVSEHIETLEEIDMEYRELALESGVENWGRVPALGLTPSFITDLADAVIESLPSAEAMSNPNAVVDSEDSESSDAFSYIVKMFFGSILAFVLLLSPKMFHAFRNL
Km [2]: 26.5 µM
